# Laboratory results: ChEMBL document CHEMBL4414672, “Synthesis of certain benzothieno[3,2-d]pyrimidine derivatives as a selective SIRT2 inhibitors” (Eur J Med Chem, 2020)
# Experiments:
# MCF7 = assay: Cytotoxicity against human MCF7 cells assessed as reduction in cell viability after 24 hrs by MTT assay; assay type: functional, cell-based; conditions: MCF7, 24 h
# UO-31 [1] = assay: Cytotoxicity against human UO31 cells assessed as reduction in cell viability after 24 hrs by MTT assay; assay type: functional, cell-based; conditions: UO-31, 24 h
# K562 = assay: Growth inhibition of human K562 cells at 10^-5 M incubated for 48 hrs by sulforhodamine B assay; assay type: functional; conditions: K562, 48 h, read-out: GI
# EKVX = assay: Growth inhibition of human EKVX cells at 10^-5 M incubated for 48 hrs by sulforhodamine B assay; assay type: functional; conditions: read-out: GI
# HOP-62 = assay: Growth inhibition of human HOP62 cells at 10^-5 M incubated for 48 hrs by sulforhodamine B assay; assay type: functional; conditions: HOP-62, 48 h, read-out: GI
# HOP-92 = assay: Growth inhibition of human HOP92 cells at 10^-5 M incubated for 48 hrs by sulforhodamine B assay; assay type: functional; conditions: HOP-92, 48 h, read-out: GI
# NCI-H226 = assay: Growth inhibition of human NCI-H226 cells at 10^-5 M incubated for 48 hrs by sulforhodamine B assay; assay type: functional; conditions: NCI-H226, 48 h, read-out: GI
# COLO 205 = assay: Growth inhibition of human COLO205 cells at 10^-5 M incubated for 48 hrs by sulforhodamine B assay; assay type: functional; conditions: COLO 205, 48 h, read-out: GI
# HCC 2998 = assay: Growth inhibition of human HCC2998 cells at 10^-5 M incubated for 48 hrs by sulforhodamine B assay; assay type: functional; conditions: HCC 2998, 48 h, read-out: GI
# HT-29 = assay: Growth inhibition of human HT-29 cells at 10^-5 M incubated for 48 hrs by sulforhodamine B assay; assay type: functional; conditions: HT-29, 48 h, read-out: GI
# KM12 = assay: Growth inhibition of human KM12 cells at 10^-5 M incubated for 48 hrs by sulforhodamine B assay; assay type: functional; conditions: KM12, 48 h, read-out: GI
# SF-539 = assay: Growth inhibition of human SF539 cells at 10^-5 M incubated for 48 hrs by sulforhodamine B assay; assay type: functional; conditions: SF-539, 48 h, read-out: GI
# U-251 = assay: Growth inhibition of human U251 cells at 10^-5 M incubated for 48 hrs by sulforhodamine B assay; assay type: functional; conditions: U-251, 48 h, read-out: GI
# MDA-MB-435 = assay: Growth inhibition of human MDA-MB-435 cells at 10^-5 M incubated for 48 hrs by sulforhodamine B assay; assay type: functional; conditions: MDA-MB-435, 48 h, read-out: GI
# SK-MEL-2 = assay: Growth inhibition of human SK-MEL-2 cells at 10^-5 M incubated for 48 hrs by sulforhodamine B assay; assay type: functional; conditions: SK-MEL-2, 48 h, read-out: GI
# UACC-257 = assay: Growth inhibition of human UACC257 cells at 10^-5 M incubated for 48 hrs by sulforhodamine B assay; assay type: functional; conditions: UACC-257, 48 h, read-out: GI
# OVCAR-4 = assay: Growth inhibition of human OVCAR4 cells at 10^-5 M incubated for 48 hrs by sulforhodamine B assay; assay type: functional; conditions: OVCAR-4, 48 h, read-out: GI
# CAKI-1 = assay: Growth inhibition of human Caki1 cells at 10^-5 M incubated for 48 hrs by sulforhodamine B assay; assay type: functional; conditions: CAKI-1, 48 h, read-out: GI
# UO-31 [2] = assay: Growth inhibition of human UO31 cells at 10^-5 M incubated for 48 hrs by sulforhodamine B assay; assay type: functional; conditions: UO-31, 48 h, read-out: GI
# PC-3 = assay: Growth inhibition of human PC3 cells at 10^-5 M incubated for 48 hrs by sulforhodamine B assay; assay type: functional; conditions: PC-3, 48 h, read-out: GI
# BT-549 = assay: Growth inhibition of human BT549 cells at 10^-5 M incubated for 48 hrs by sulforhodamine B assay; assay type: functional; conditions: BT-549, 48 h, read-out: GI
# MDA-MB-468 = assay: Growth inhibition of human MDA-MB-468 cells at 10^-5 M incubated for 48 hrs by sulforhodamine B assay; assay type: functional; conditions: MDA-MB-468, 48 h, read-out: GI
Compound,inhibition of growth at 10 µM (K562) [%],inhibition of growth at 10 µM (EKVX) [%],inhibition of growth at 10 µM (HOP-62) [%],inhibition of growth at 10 µM (HOP-92) [%],inhibition of growth at 10 µM (NCI-H226) [%],inhibition of growth at 10 µM (COLO 205) [%],inhibition of growth at 10 µM (HCC 2998) [%],inhibition of growth at 10 µM (HT-29) [%],inhibition of growth at 10 µM (KM12) [%],inhibition of growth at 10 µM (SF-539) [%],inhibition of growth at 10 µM (U-251) [%],inhibition of growth at 10 µM (MDA-MB-435) [%],inhibition of growth at 10 µM (SK-MEL-2) [%],inhibition of growth at 10 µM (UACC-257) [%],inhibition of growth at 10 µM (OVCAR-4) [%],inhibition of growth at 10 µM (CAKI-1) [%],inhibition of growth at 10 µM (UO-31 [2]) [%],inhibition of growth at 10 µM (PC-3) [%],inhibition of growth at 10 µM (BT-549) [%],inhibition of growth at 10 µM (MDA-MB-468) [%],further results
NNC1=Nc2c(sc3ccc(Cl)cc23)C(c2cccc([N+](=O)[O-])c2)N1 (stereo unspecified),13.3,16.9,6.98,-12.8,18.4,-1.26,-1.26,-13.5,1.7,-1.12,-3.56,-7.56,-8.15,-0.19,1.81,18.5,42.9,15.2,-17.8,7.99,IC50 (MCF7): 16.4 µg/mL; IC50 (UO-31 [1]): 18.3 µg/mL
S=C1Nc2c(sc3ccc(Cl)cc23)C(c2ccc3ccccc3c2)N1 (stereo unspecified),4,14.6,10.1,27.5,20.6,0.1,-16.7,0.32,-6.6,3.23,7.46,-2.5,9.98,1.95,11,27.5,-25.5,14.5,-9.88,4.47,IC50 (MCF7): 19.6 µg/mL; IC50 (UO-31 [1]): 7.91 µg/mL
O=C1SC2=Nc3c(sc4ccc(Cl)cc34)C(c3ccc4ccccc4c3)N2C1=O (stereo unspecified),12,12.9,8.58,16.5,24,-2.01,-27.7,-2.87,7.8,5.81,-1.96,2.92,14.1,-0.63,23.6,30.1,44.4,17.1,-19.9,11.2,IC50 (MCF7): 23.3 µg/mL; IC50 (UO-31 [1]): 46.7 µg/mL
N=C1Nc2c(sc3ccc(Cl)cc23)C(c2cccc(Br)c2)N1 (stereo unspecified),13.7,14.5,8.49,3.3,21.6,-0.42,-13.8,-3.97,6.3,-8.29,-3.32,1.88,-8.11,1.22,6.46,20.5,38.3,10.2,-21.8,13.6,–
